Consider 12 compounds from US12649727B2, “EFGR inhibitor, preparation method therefor and application thereof” (Abbisko Therapeutics Co., Ltd, priority 2020, dated 2026).

Holding throughout (format): cell-based
The target of experiment [1] is Ba/F3 EGFR-V769_D770insASV (Homo sapiens, UniProt P00533, DUP767-769, cells depend on it). Briefly: Proliferation experiment of Ba/F3 cell line, EGFR-V769_D770insASV (CellTiter-Glo). Particulars: cultured for 72 hrs with compound, CTG analysis, read-out: Ba/F3 EGFR-V769_D770insASV IC50. Put shortly:
(§1)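 […] Ba/F3 cells expressing EGFR insertion mutants treated 72 h at 37 °C with 9 concentrations, 3.16-fold dilutions, top 10 μM, 0.1% DMSO, in triplicate. Viability by CellTiter-Glo luminescence with T0 reference plate; IC50 (nM) from non-linear dose-response fit.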

For the next experiment, the system named is A431 (EGFR-WT). Kind of experiment: Proliferation experiment, A431 cell line (CellTiter-Glo). Particulars: Homo sapiens, A-431; A431 cells, cultured for 72 hrs with compound, CTG analysis.
Experiment [2] concerns the target Ba/F3 EGFR-D770-N771ins_SVD (Homo sapiens, UniProt P00533, DUP768-770, cells depend on it). Briefly: Proliferation experiment of Ba/F3 cell line, EGFR-D770-N771ins_SVD (CellTiter-Glo). Particulars: cultured for 72 hrs with compound, CTG analysis, read-out: Ba/F3 EGFR-D770-N771ins_SVD IC50. Put shortly: as §1

Each structure is given as a SMILES string.

Sequence of Ba/F3 EGFR-D770-N771ins_SVD (P00533 with tags, fused parts or gaps DUP768-770): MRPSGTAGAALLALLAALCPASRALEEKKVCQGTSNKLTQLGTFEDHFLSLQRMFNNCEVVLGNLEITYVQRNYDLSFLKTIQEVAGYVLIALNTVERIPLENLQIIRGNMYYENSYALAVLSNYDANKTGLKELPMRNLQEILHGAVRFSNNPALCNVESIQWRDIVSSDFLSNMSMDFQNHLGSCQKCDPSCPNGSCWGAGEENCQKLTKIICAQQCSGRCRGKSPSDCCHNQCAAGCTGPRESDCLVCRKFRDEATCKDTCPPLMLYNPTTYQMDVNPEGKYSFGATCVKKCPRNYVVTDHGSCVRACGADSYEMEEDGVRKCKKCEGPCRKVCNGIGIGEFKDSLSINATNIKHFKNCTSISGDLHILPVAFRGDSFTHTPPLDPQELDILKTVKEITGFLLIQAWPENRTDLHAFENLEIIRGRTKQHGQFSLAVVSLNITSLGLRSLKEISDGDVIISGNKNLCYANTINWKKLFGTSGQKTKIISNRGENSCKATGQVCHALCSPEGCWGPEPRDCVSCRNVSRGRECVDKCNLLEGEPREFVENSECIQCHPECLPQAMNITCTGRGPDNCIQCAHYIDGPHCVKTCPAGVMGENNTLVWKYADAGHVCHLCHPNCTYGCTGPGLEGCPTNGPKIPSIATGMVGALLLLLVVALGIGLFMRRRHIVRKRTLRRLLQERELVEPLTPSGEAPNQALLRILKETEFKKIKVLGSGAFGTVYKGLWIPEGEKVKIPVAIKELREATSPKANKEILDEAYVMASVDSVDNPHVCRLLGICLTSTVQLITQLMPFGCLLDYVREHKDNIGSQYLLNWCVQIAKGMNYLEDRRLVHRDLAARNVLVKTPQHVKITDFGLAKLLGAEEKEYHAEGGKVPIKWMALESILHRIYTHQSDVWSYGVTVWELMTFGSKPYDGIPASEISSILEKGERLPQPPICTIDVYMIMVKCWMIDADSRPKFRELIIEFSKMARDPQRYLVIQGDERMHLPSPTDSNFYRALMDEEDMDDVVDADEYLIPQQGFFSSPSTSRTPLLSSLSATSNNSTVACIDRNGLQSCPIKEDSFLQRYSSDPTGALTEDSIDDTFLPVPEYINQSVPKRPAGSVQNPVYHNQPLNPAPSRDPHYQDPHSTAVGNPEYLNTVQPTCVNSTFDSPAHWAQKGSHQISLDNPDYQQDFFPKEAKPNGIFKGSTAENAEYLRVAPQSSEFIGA
Sequence of Ba/F3 EGFR-V769_D770insASV (P00533 with tags, fused parts or gaps DUP767-769): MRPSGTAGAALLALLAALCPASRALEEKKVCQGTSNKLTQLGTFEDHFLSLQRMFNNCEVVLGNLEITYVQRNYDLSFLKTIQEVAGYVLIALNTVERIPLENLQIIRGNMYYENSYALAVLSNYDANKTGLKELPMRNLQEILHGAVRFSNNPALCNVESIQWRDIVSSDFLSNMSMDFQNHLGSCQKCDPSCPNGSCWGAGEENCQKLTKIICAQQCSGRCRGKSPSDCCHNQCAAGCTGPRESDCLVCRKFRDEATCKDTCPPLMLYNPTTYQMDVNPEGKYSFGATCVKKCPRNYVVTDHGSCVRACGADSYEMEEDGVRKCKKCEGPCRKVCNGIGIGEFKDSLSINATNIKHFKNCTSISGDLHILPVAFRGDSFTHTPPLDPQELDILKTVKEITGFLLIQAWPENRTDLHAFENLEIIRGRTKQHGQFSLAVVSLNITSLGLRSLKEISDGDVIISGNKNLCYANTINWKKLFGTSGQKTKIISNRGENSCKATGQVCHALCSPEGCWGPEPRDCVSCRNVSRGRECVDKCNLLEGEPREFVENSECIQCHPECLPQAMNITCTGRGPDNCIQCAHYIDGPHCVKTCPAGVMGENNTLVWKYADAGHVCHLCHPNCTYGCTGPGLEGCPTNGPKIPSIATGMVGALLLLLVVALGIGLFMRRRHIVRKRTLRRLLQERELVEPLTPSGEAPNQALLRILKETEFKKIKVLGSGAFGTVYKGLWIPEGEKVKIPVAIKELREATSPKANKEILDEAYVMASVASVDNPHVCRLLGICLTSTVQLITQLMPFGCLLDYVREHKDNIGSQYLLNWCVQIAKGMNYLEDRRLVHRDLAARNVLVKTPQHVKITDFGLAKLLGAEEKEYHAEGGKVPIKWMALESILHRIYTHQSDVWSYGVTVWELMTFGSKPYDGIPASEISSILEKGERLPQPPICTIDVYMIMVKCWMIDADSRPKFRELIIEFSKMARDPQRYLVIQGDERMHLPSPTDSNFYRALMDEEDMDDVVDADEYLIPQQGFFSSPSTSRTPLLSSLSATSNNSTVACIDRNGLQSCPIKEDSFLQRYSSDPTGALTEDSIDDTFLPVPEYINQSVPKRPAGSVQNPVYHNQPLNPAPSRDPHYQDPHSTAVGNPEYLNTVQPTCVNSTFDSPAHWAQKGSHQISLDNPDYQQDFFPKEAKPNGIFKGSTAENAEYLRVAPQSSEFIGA

For `C=C(F)C(=O)Nc1cc2c(Nc3ccnc(-c4ccccc4F)c3)ncnc2cc1N1CCC1` [Example 105, N-(7-(azetidin-1-yl)-4-((2-(2-fluorophenyl)pyridin-4-yl)amino)quinazolin-6-yl)-2-fluoroacrylamide], the GI50 was 35 nM in experiment [1] and 12.7 nM in experiment [2]. Besides, the IC50 in the experiment on A431 (EGFR-WT) was 2500 nM.
For `C=CC(=O)Nc1cc2c(Nc3ccnc(-c4ccccc4F)c3)ncnc2cc1O[C@@H]1CCN(CCOC)C1` [Example 111, (R)—N-(4-((2-(2-fluorophenyl)pyridin-4-yl)amino)-7-((1-(2-methoxyethyl)pyrrolidin-3-yl)oxy)quinazolin-6-yl)acrylamide] the same measures were 3.4 nM, 1.8 nM and 84.6 nM.
For `C=CC(=O)Nc1cc2c(Nc3ccnc(-c4ccccc4F)c3)ncnc2cc1O[C@@H]1CCN(CCO)C1` [Example 112, (R)—N-(4-((2-(2-fluorophenyl)pyridin-4-yl)amino)-7-((1-(2-hydroxyethyl)pyrrolidin-3-yl)oxy)quinazolin-6-yl)acrylamide], the values for the GI50 in experiment [1] and in experiment [2] were 3.6 nM and 1.4 nM, respectively. The IC50 with A431 (EGFR-WT) was found to be 89.3 nM.
For the compound `C=CC(=O)Nc1cc2c(Nc3ccnc(-c4ccccc4F)c3)ncnc2cc1O[C@@H]1CCN(C2CC2)C1` [Example 113, (R)—N-(7-((1-cyclopropylpyrrolidin-3-yl)oxy)-4-((2-(2-fluorophenyl)pyridin-4-yl)amino)quinazolin-6-yl)acrylamide], the GI50 came out at 11.6 nM in experiment [1] and 3.9 nM in experiment [2]. For the same compound, in the experiment on A431 (EGFR-WT), the IC50 came to 173 nM.
As to `C=CC(=O)Nc1cc2c(Nc3ccnc(-c4ccccc4F)c3)ncnc2cc1O[C@@H]1CCN(C2COC2)C1` [Example 114, (R)—N-(4-((2-(2-fluorophenyl)pyridin-4-yl)amino)-7-((1-(oxetan-3-yl)pyrrolidin-3-yl)oxy)quinazolin-6-yl)acrylamide], the GI50 in experiment [1] was found to be 3.3 nM; in experiment [2], 1.1 nM. In addition, in the experiment with A431 (EGFR-WT), the IC50 is 26.3 nM.
As for `C=CC(=O)Nc1cc2c(Nc3ccnc(-c4ccccc4F)c3)ncnc2cc1O[C@@H]1CCN(C2CCN(C)CC2)C1` [Example 116, (R)-N-(4-((2-(2-fluorophenyl)pyridin-4-yl)amino)-7-((1-(1-methylpiperidin-4-yl)pyrrolidin-3-yl)oxy)quinazolin-6-yl)acrylamide], the figures for the GI50 in experiment [1] and in experiment [2] were 3.4 nM and 3 nM, respectively. In the experiment with A431 (EGFR-WT), the IC50 was determined as 142 nM.
With `C=C(F)C(=O)Nc1cc2c(Nc3ccnc(-c4ccccc4F)c3)ncnc2cc1O[C@@H]1CCN(C2COC2)C1` [Example 118, (R)-2-fluoro-N-(4-((2-(2-fluorophenyl)pyridin-4-yl)amino)-7-((1-(oxetan-3-yl)pyrrolidin-3-yl)oxy)quinazolin-6-yl)acrylamide], the figures for the GI50 in experiment [1] and in experiment [2] were 9.8 nM and 2.6 nM, respectively. Also, the concentration for half-maximal inhibition (IC50) in the experiment on A431 (EGFR-WT) is 19.1 nM.
Regarding `C=C(F)C(=O)Nc1cc2c(Nc3ccnc(-c4ccccc4F)c3)ncnc2cc1O[C@@H]1CCN(C2CCOCC2)C1` [Example 121, (R)-2-fluoro-N-(4-((2-(2-fluorophenyl)pyridin-4-yl)amino)-7-((1-(tetrahydro-2H-pyran-4-yl)pyrrolidin-3-yl)oxy)quinazolin-6-yl)acrylamide], the GI50 is 16.5 nM in experiment [1] and 6.5 nM in experiment [2]. In addition, in the experiment with A431 (EGFR-WT), the IC50 is 44.1 nM.
In the case of `C=CC(=O)Nc1cc2c(Nc3ccnc(-c4ccccc4F)c3)ncnc2cc1OCCCN1CCN(CCO)CC1` [Example 122, N-(4-((2-(2-fluorophenyl)pyridin-4-yl)amino)-7-(3-(4-(2-hydroxyethyl)piperazin-1-yl)propoxy)quinazolin-6-yl)acrylamide], the GI50 was found to be 6.8 nM in experiment [1] and 3.8 nM in experiment [2]. Also, in the experiment on A431 (EGFR-WT), the IC50 worked out at 63.9 nM.
On to `C=CC(=O)Nc1cc2c(Nc3ccnc(-c4ccccc4F)c3)ncnc2cc1OCCCN1CCN(CCOC)CC1` [Example 123, N-(4-((2-(2-fluorophenyl)pyridin-4-yl)amino)-7-(3-(4-(2-methoxyethyl)piperazin-1-yl)propoxy)quinazolin-6-yl)acrylamide], for which the GI50 in experiment [1] was 2.4 nM; in experiment [2], 1.6 nM. For the same compound, in the experiment with A431 (EGFR-WT), the IC50 is 20.5 nM.
Regarding `C=CC(=O)Nc1cc2c(Nc3ccnc(-c4ccccc4F)c3)ncnc2cc1O[C@@H]1CCN(CC)C1` [Example 124, (R)-N-(7-((1-ethylpyrrolidin-3-yl)oxy)-4-((2-(2-fluorophenyl)pyridin-4-yl)amino)quinazolin-6-yl)acrylamide], the GI50 in experiment [1] was 9.1 nM; in experiment [2], 2.9 nM. Also, the IC50 with A431 (EGFR-WT) came to 104 nM.
With `C=CC(=O)Nc1cc2c(Nc3ccnc(-c4ccccc4F)c3)ncnc2cc1O[C@@H]1CCN(C(C)C)C1` [Example 125, (R)-N-(4-((2-(2-fluorophenyl)pyridin-4-yl)amino)-7-((1-isopropylpyrrolidin-3-yl)oxy)quinazolin-6-yl)acrylamide], the values for the GI50 in experiment [1] and in experiment [2] were 7.8 nM and 2.4 nM, respectively. In the experiment with A431 (EGFR-WT), the IC50 came to 86.5 nM.
